Values of other authors, collected in patent US6984402B2, “Chrono delivery formulations and method of treating atrial fibrillation” (Elite Laboratories, Inc., priority 2000, dated 2006).

COc1ccc([C@@H]2Sc3ccccc3N(CCN(C)C)C(=O)[C@@H]2OC(C)=O)cc1 [diltiazem]
half-life in blood (humans): 3 to 4 h
absolute bioavailability (oral, compared with intravenous administration): 40%
